In patent publication US11702422B2, “Imidazopyridazines as modulators of IL-17” (Janssen Pharmaceutica NV, priority 2020, dated 2023):

Assays:
[1] = test system: patients with active PsA; details: compared with anti-TNFα antibodies; cited from earlier work
[2] = test system: patients with moderate-to-severe HS; details: seven of nine patients, open-label pilot-trial; cited from earlier work
[3] = test system: SCIDhu model of human myeloma; details: weekly for 4 weeks after first detection of tumor, compared to isotype control mice; cited from earlier work
[4] = test system: patients with PsA; details: PsA with inadequate response to conventional synthetic disease-modifying antirheumatic drug; cited from earlier work
[5] = molecular target: IL-17A(FLAG-Tagged): IL-17RA(His-Tagged) (Homo sapiens, UniProt Q16552, K93Q); assay: IL-17A(FLAG-Tagged): IL-17RA(His-Tagged) Binding Disruption Eu-HTRF Assay; details: IL-17A/IL-17RA binding disruption, simple average if tested more than once
UniProt Q16552, sequence (Q16552 with tags, fused parts or gaps K93Q): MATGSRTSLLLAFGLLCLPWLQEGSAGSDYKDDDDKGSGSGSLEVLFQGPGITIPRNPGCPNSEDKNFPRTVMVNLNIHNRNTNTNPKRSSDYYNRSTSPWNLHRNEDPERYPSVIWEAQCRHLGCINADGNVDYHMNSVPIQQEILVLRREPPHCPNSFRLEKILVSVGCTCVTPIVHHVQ
Procedure, shortened: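 IC50 comes from a one-site competition fit of the HTRF 665/620 nm ratio. Compound dilutions (2-fold, 22 points) were held 1 h rt with FLAG-tagged IL-17A dimer, then His-tagged IL-17RA plus Eu-cryptate anti-FLAG and D2 anti-His antibodies were added for 2 h rt.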

[6] = test system: IL-17A-induced G-CSF production in human normal keratinocyte (NHK); assay: NHK Assay: IL-17A-induced G-CSF production in human normal keratinocytes; assay type: cell-based; details: 24 h, adult normal human keratinocytes, IL-17A 5 ng/mL, simple average if tested more than once
Procedure, shortened: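 HTRF read-out of supernatant G-CSF, quantified from a standard curve, gave IC50 values. Adult keratinocytes, 3000-4000 cells/well, received human IL-17A (5 ng/mL final) pre-mixed 1 h at rt with compound, in 5% FBS and 0.2% DMSO, 24 h at 37° C.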

Compound	IC50 [5]	IC50 ([6]; Homo sapiens, Keratinocyte)	further results
secukinumab	–	–	ACR 20/50/70 response rates [1]: higher ACR 20/50/70 response rates; patients achieving HiSCR [2]: 78%; bone damage [3]: reduced bone damage; tumor growth [3]: significant inhibition of tumor growth
ixekizumab	–	–	simultaneous improvement of joint and skin disease (ACR50 and PASI100) [4]: superior to adalimumab
COc1cc(C(=O)N[C@H](c2cn3ncc([C@H](NC(=O)CCC(F)(F)F)C4CC4)cc3n2)C2CCC(F)(F)CC2)ncn1 [Example 465, N—((S)-(7-((R)-Cyclopropyl(4,4,4-trifluorobutanamido)methyl)imidazo[1,2-b]pyridazin-2-yl)(4,4-difluorocyclohexyl)methyl)-6-methoxypyrimidine-4-carboxamide]	920 nM	1600 nM	–
N#CC1(C(NC(=O)CC2CC(F)(F)C2)c2cnn3cc([C@@H](NC(=O)c4nonc4OCC(F)F)C4CCC(F)(F)CC4)nc3c2)CC1 (single isomer, unassigned) [Example 430, N—((S)-(7-((R*)-(1-Cyanocyclopropyl)(2-(3,3-difluorocyclobutyl)acetamido)methyl)imidazo[1,2-b]pyridazin-2-yl)(4,4-difluorocyclohexyl)methyl)-4-(2,2-difluoroethoxy)-1,2,5-oxadiazole-3-carboxamide]	1600 nM	–	IC50 [6]: 12000 nM
C[C@@H](n1ncnc1C(=O)N[C@H](c1cn2ncc([C@H](NC(=O)CCC(F)(F)F)C3CC3)cc2n1)C1CCC(F)(F)CC1)C(F)(F)F [Example 478, N—((S)-(7-((R)-Cyclopropyl(4,4,4-trifluorobutanamido)methyl)imidazo[1,2-b]pyridazin-2-yl)(4,4-difluorocyclohexyl)methyl)-1-((R)-1,1,1-trifluoropropan-2-yl)-1H-1,2,4-triazole-5-carboxamide]	450 nM	850 nM	–

The next lines start with results.

IC50 [5]	Compound	IC50 ([6]; Homo sapiens, Keratinocyte)	further results
63 nM	Cn1nccc1C(=O)N[C@H](c1cn2ncc(C(NC(=O)CC3CC(F)(F)C3)C3CC3)cc2n1)C1CCC(F)(F)CC1 (single isomer, unassigned) [Example 24, N—((S)-(7-((R*)-Cyclopropyl(2-(3,3-difluorocyclobutyl)acetamido)methyl)imidazo[1,2-b]pyridazin-2-yl)(4,4-difluorocyclohexyl)methyl)-1-methyl-1H-pyrazole-5-carboxamide]	84 nM	–
160 nM	O=C(CC1CC(F)(F)C1)NC(c1cnn2cc([C@@H](NC(=O)c3ccn(CCC(F)(F)F)n3)C3CCC(F)(F)CC3)nc2c1)C1CC1 (single isomer, unassigned) [Example 20, N—((S)-(7-((R*)-Cyclopropyl(2-(3,3-difluorocyclobutyl)acetamido)methyl)imidazo[1,2-b]pyridazin-2-yl)(4,4-difluorocyclohexyl)methyl)-1-(3,3,3-trifluoropropyl)-1H-pyrazole-3-carboxamide]	650 nM	–
56 nM	CCC(NC(=O)CC1CC(F)(F)C1)c1cnn2cc([C@@H](NC(=O)c3nonc3C3CC3)C3CCC(F)(F)CC3)nc2c1 (single isomer, unassigned) [Example 507, 4-Cyclopropyl-N—((S)-(7-((R*)-1-(2-(3,3-difluorocyclobutyl)acetamido)propyl)imidazo[1,2-b]pyridazin-2-yl)(4,4-difluorocyclohexyl)methyl)-1,2,5-oxadiazole-3-carboxamide]	42 nM	–
1500 nM	Cc1nonc1C(=O)N[C@H](c1cn2ncc([C@H](NC(=O)C(F)C3CC3)C3CC3)cc2n1)C1CCC(F)(F)CC1 (single isomer, unassigned) [Example 332, N—((S)-(7-((R)-Cyclopropyl((S*)-2-cyclopropyl-2-fluoroacetamido)methyl)imidazo[1,2-b]pyridazin-2-yl)(4,4-difluorocyclohexyl)methyl)-4-methyl-1,2,5-oxadiazole-3-carboxamide]	–	IC50 [6]: 12000 nM
63 nM	O=C(CC1CC(F)(F)C1)N[C@@H](c1cnn2cc([C@@H](NC(=O)c3nocc3C3CC3)C3CCC(F)(F)CC3)nc2c1)C1CC1 [Example 403, 4-Cyclopropyl-N—((S)-(7-((R)-cyclopropyl(2-(3,3-difluorocyclobutyl)acetamido)methyl)imidazo[1,2-b]pyridazin-2-yl)(4,4-difluorocyclohexyl)methyl)isoxazole-3-carboxamide]	170 nM	–
120 nM	O=C(CCC(F)(F)F)N[C@@H](c1cnn2cc([C@@H](NC(=O)c3cnnn3CCCF)C3CCC(F)(F)CC3)nc2c1)C1CC1 [Example 112, N—((S)-(7-((R)-Cyclopropyl(4,4,4-trifluorobutanamido)methyl)imidazo[1,2-b]pyridazin-2-yl)(4,4-difluorocyclohexyl)methyl)-1-(3-fluoropropyl)-1H-1,2,3-triazole-5-carboxamide]	160 nM	–
